For assay [1], the system named is primary mouse keratinocytes. Nature of the assay: Filaggrin expression in differentiating keratinocytes (Western blot of cytoskeletal fraction). The format is cell-based. The conditions noted are these: 50, 150 and 300 nM; 0.12 mM Ca2+. The procedure:
Primary mouse keratinocytes were cultured in 0.05 mM Ca^+2 MEM and differentiation was induced by elevating Ca^+2 concentrations to 0.12 mM. Keratinocytes were treated with either PBS (control) or different concentrations (50, 150 and 300 nM) of troglitazone, a PPARγ activator. The cells were lysed and the cytoskeletal fraction was subjected to SDS-PAGE and blotted with anti-filaggrin antibody.

Assay [2] has as its system damaged skin from diabetic (STZ injected) C57BL/6J mice. Nature of the assay: Reconstruction of the hypodermis layer in damaged diabetic skin (H&E histology). The format is in vivo. The conditions noted are these: 7-9 days treatment; insulin 0.1 unit + peptide 1 μM, or adipsin 1 μM. The procedure: Damaged skin from diabetic (STZ injected) C57BL/6J mice was treated with either PBS (control); a mixture of insulin (0.1 unit) and the N-myristoylated PKCα pseudosubstrate peptide of SEQ ID NO: 1 (1 μM); or adipsin (1 μM) for 7-9 days. Skin biopsies were then collected and embedded in paraffin, and histological sections were performed and stained with H&E. The sections were analyzed for presence of the hypodermis layer presented as a continuous layer of adipocytes, and the percent of total animals per each group with fully reconstituted hypodermis is shown in FIGS. 11A-11B.

Assay [3] concerns damaged skin of diabetic (STZ injected) C57BL/6J mice. Nature of the assay: Inflammatory response in damaged skin of diabetic mice (H&E histology, abscess formation and leukocytosis). The format is in vivo. The note with it: adiponectin 0.1 μg/ml for 7 days; non-treated control 90%; severe = both abscess and leukocytosis. The procedure:
Damaged skin of diabetic (STZ injected) C57BL/6J mice was treated with either PBS (control) or adiponectin (0.1 μg/ml) for 7 days (total n=18). Thereafter, skin biopsies were collected, embedded in paraffin, and analyzed for inflammation by H&E histological staining. Inflammation was graded by abscess formation and excessive leukocytosis in the skin and proximal blood vessels, and severe inflammation was considered when both abscess and leukocytosis were apparent.
In the next step, damaged skin from diabetic (STZ injected) C57BL/6J mice was treated with either PBS (control); a mixture of insulin (0.1 unit) and the N-myristoylated PKCα pseudosubstrate peptide of SEQ ID NO: 1 (1 μM); or Copolymer-1 (Teva Pharmaceutical Industries, Israel), (55 μg/ml) for 9 days (n=6 per each group). […] Thereafter, skin biopsies were collected, embedded in paraffin, and analyzed for inflammation by H&E histological staining. Inflammation was graded as described above.

This note sets out measurements from patent US8367606B2, “Method and compositions for prevention and treatment of diabetic and aged skin” (HealOr Ltd., priority 2005, dated 2013).

For `Cc1c(C)c2c(c(C)c1O)CCC(C)(COc1ccc(CC3SC(=O)NC3=O)cc1)O2` (stereo not drawn) [troglitazone, 5-(4-(6-hydroxy-2,5,7,8-tetramethylchroman-2-yl-methoxy)benzyl)-2,4-thiazolidinedione], the “filaggrin expression (terminal differentiation marker, FIG. 12)” value in assay [1] is reported as “upregulation of filaggrin expression”. As to “adipsin: adipokine, complement factor D secreted by adipocytes”, the “reconstitution of the hypodermis layer (FIGS. 11A-11B)” value in assay [2] was “can reconstruct the hypodermal subcutaneous layer”.

B1: adiponectin: adipokine, a bioactive molecule secreted by adipocytes (protein, UniProt Q15848 19-244, looked up)
Adiponectin: ETTTQGPGVLLPLPKGACTGWMAGIPGHPGHNGAPGRDGRDGTPGEKGEKGDPGLIGPKGDIGETGVPGAEGPRGFPGIQGRKGEPGEGAYVYRSAFSVGLETYVTIPNMPIRFTKIFYNQQNHYDGSTGKFHCNIPGLYYFAYHITVYMKDVKVSLFKKDKAMLFTYDQYQENNVDQASGSVLLHLEVGDQVWLQVYGEGERNGLYADNDNDSTFTGFLLYHDTN
With B1, in assay [3], the “percent of animals exhibiting severe inflammation of the skin” value was determined as 20%.
